Test results: patent US7132420B2, “Aspartic protease inhibitors” (The United States of America as represented by the …, priority 1999, dated 2006)
Like-named read-outs stand apart in the source and are kept apart here.

How the values were obtained:
[1] = target: 82F/84V mutant HIV-1 protease (Human immunodeficiency virus type 1 group M subtype B, UniProt P04585, I572V/V570F); format: biochemical
Description: (§1) This example illustrates the HIV-1 protease inhibition activity (Ki), HIV-1 antiviral data (EC50), and the toxicity against normal cells (IC50), for particular compounds of formula (I). The HIV protease assay was done according to the protocol described in Kageyama et al, Antimicrob. Agents Chemother., 37, 272 (1993). The HIV antiviral assay was done according to the protocol described in Weislow et al., J. National Cancer Inst. 81, 577 (1989).

HIV-1 protease = HIV-1 protease (Human immunodeficiency virus type 1 group M subtype B, UniProt P04585); assay: HIV protease assay (Ki); format: biochemical
Description: as §1
(§2) The HIV protease assay was done according to the protocol described in Example 35. The plasmepsin II assay was done according to the protocol used in Silva et al., Proc. Nat. Acad. Sci. USA, 93, pp. 10034–10039, September 1996 (Biochemstry). The cathepsin D assay was done according to the protocol described in Gulnik et al., FEBS Letters, 413, 379–384 (1997). The compounds illustrated in Table 2 are of the general formula (II), as described in Example 35.

normal cells = assay: toxicity against normal cells (IC50); format: cell-based
Description: as §1

HIV-1 = assay: HIV antiviral assay (EC50); format: cell-based
Description: The HIV protease assay was done according to the protocol described in Kageyama et al, Antimicrob. Agents Chemother., 37, 272 (1993). The HIV antiviral assay was done according to the protocol described in Weislow et al., J. National Cancer Inst. 81, 577 (1989).

plasmepsin II = plasmepsin II (Plasmodium falciparum, UniProt P46925); assay: biochemical; format: biochemical; conditions: for Ki: Table 2, read-out: Pls II Ki
Description: as §2

cathepsin D = cathepsin D (Homo sapiens, UniProt P07339); assay: cathepsin D assay (Ki); format: biochemical; conditions: for Ki: Table 2, read-out: Cath D Ki
Description: as §2

[2] = target: 84V mutant HIV-1 protease (Human immunodeficiency virus type 1 group M subtype B, UniProt P04585, I572V); assay: HIV protease assay, 84V mutant (Ki); format: biochemical
Description: as §1

Rat IV pharmacokinetics = format: in vivo, rats; conditions: IV about 5 mg/kg
Protocol: (§3) This example illustrates the oral bioavailability of various compounds of the present invention. […] Drug concentrations were measured by centrifuging plasma samples, extracting the supernatants with tert-butyl methyl ether, and analyzing the extracts by HPLC. Oral bioavailability (% F) was calculated on the basis of the ratio of the amount of drug absorbed systemically from oral administration (AUC p.o.) relative to the amount of systemic drug obtained from intravenous administration (AUC iv).

[3] = Rat P.O. pharmacokinetics and oral bioavailability; format: in vivo, rats; conditions: for Cmax / Rat P.O. tmax: P.O. about 37 mg/kg, PEG 300 vehicle
Protocol: as §3

[4] = Table 1, in nM, read-out: HIV-1 Ki

Sequence of plasmepsin II (P46925 125-453): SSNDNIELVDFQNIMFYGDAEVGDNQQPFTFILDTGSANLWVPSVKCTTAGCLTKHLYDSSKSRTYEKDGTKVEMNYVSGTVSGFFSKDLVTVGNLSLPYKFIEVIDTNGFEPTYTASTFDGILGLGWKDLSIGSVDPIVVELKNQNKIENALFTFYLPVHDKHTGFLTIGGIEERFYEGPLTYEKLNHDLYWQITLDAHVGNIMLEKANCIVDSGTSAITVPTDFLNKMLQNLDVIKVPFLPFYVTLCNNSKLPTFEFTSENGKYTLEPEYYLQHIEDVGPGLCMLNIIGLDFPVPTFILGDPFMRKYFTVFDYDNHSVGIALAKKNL
Sequence of cathepsin D (P07339 65-412): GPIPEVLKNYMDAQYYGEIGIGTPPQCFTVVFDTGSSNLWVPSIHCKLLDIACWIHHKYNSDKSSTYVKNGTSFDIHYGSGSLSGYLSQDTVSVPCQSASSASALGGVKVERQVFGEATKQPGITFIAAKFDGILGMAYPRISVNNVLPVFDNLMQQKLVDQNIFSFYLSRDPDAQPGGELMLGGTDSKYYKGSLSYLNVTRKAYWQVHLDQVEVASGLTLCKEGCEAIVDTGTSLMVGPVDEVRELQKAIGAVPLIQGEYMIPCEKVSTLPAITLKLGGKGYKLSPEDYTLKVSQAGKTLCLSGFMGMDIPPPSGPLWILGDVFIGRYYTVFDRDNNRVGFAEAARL

Compound	Ki (HIV-1 protease; Table 1, read-out: HIV-1 Ki)	IC50 (normal cells; Table 1)	EC50 (HIV-1; Table 1)	Ki (HIV-1 protease; Table 2, read-out: HIV-1 Ki)	IC50 (normal cells; Table 2)	EC50 (HIV-1; Table 2)	Ki (plasmepsin II)	Ki (cathepsin D)	also measured
CC(C)C[C@@H](C[C@H](O)[C@H](Cc1ccccc1)NC(=O)O[C@H]1CCOC1)NC(=O)[C@H](C(C)C)N1CCCNC1=O [(35), (2S,3S,5S)-2-[N-(3S-terahydrofuranyloxycarbonyl]amino]-5-[N-[[3-methyl-2S-(2-oxo-tetrahydropyrimidin-1-yl)]butyryl]amino]-3-hydroxy-7-methyl-1-phenyloctane]	0.094 ± 0.024 nM	> 100000 nM	700 nM	–	–	–	–	–	Ki ([1]; Table 1, in nM): 3.2 nM
Cc1cccc(C)c1OCC(=O)N[C@@H](Cc1ccccc1)[C@@H](O)C[C@H](Cc1ccccc1)NC(=O)[C@H](C(C)C)N1CCCNC1=O [(24), reference compound]	0.013 nM	> 100000 nM	41 nM	0.012 nM	> 100000 nM	41 nM	3500 nM	1960 nM	–
CC(C)[C@H](NC(=O)OCc1ccccn1)C(=O)N[C@@H](Cc1ccccc1)C[C@H](O)[C@H](Cc1ccccc1)NC(=O)[C@@H](NC(=O)OCc1ccccn1)C(C)C [(22), reference compound]	0.015 nM	–	–	–	–	–	–	–	Ki ([1]; Table 1): 0.271 nM; Ki ([2]; Table 1): 0.21 nM
Cc1cccc(C)c1OCC(=O)N[C@@H](Cc1ccccc1)[C@@H](O)C[C@H](CC(C)C)NC(=O)c1ccc(N)cc1 [(31), (2S,3S,5S)-5-[N-(4-aminobenzoyl)amino]-2-[N-[2-(2,6-dimethylphenoxy)acetyl]amino]-3-hydroxy-7-methyl-1-phenyloctane]	–	> 100000 nM	–	–	> 100000 nM	–	30 nM	–	Ki (HIV-1 protease): 1.2 nM; inhibitory activity against HIV-1 protease, in words (HIV-1 protease): generally potent; EC50 (HIV-1; Human immunodeficiency virus 1, Table 1): 2000 nM; inhibitory activity against plasmepsin II, in words (plasmepsin II): generally potent; inhibitory activity against cathepsin D, in words (cathepsin D): generally potent
Cc1cccc(C)c1OCC(=O)N[C@@H](Cc1ccccc1)[C@@H](O)C[C@H](CC(C)C)NC(=O)N1CCOCC1 [(27)]	–	–	> 50000 nM	0.37 nM	–	> 50000 nM	76 nM	6.1 nM	Ki (HIV-1 protease; [4]): 37 nM
Cc1cccc(C)c1OCC(=O)N[C@@H](Cc1ccccc1)[C@@H](O)C[C@H](CC(C)C)NC(=O)NC(C)(C)C [(28), (2S,3S,5S)-5-[N-[[N′-(tert-butyl)amino]carbonyl]amino]-2-[N-[2-(2,6-dimethylphenoxy)acetyl]amino]-3-hydroxy-7-methyl-1-phenyloctane]	0.1 nM	–	2000 nM	0.1 nM	> 100000 nM	2000 nM	107 nM	–	inhibitory activity against HIV-1 protease, in words (HIV-1 protease): generally potent; inhibitory activity against plasmepsin II, in words (plasmepsin II): generally potent; inhibitory activity against cathepsin D, in words (cathepsin D): generally potent
CC(C)C[C@@H](C[C@H](O)[C@H](Cc1ccccc1)NC(=O)c1ccccc1NC(=O)OCc1ccccn1)NC(=O)c1ccccc1NC(=O)OCc1ccccn1 [(21)]	0.14 nM	> 20000 nM	127 nM	–	–	–	–	–	Ki ([2]; Table 1, in nM): 2.7 nM
Cc1cccc(C)c1OCC(=O)N[C@@H](Cc1ccccc1)[C@@H](O)C[C@H](CC(C)C)NC(=O)OC(C)(C)C [(15), (2S,3S,5S)-5-[N-tert-butyloxycarbonylamino]-2-[N-[2-(2,6-dimethylphenoxy)acetyl]amino]-3-hydroxy-7-methyl-1-phenyloctane]	–	–	–	–	–	–	210 nM	6.1 nM	Ki (HIV-1 protease): 0.009 nM; Ki (HIV-1 protease; read-out: HIV-1 Ki, Table 2): 0.009 nM
CCOC(=O)N[C@H](C(=O)N[C@@H](CC(C)C)C[C@H](O)[C@H](Cc1ccccc1)NC(=O)COc1c(C)cccc1C)C(C)C [(46)]	0.054 nM	> 100000 nM	160 nM	–	–	–	–	–	Ki ([1]; Table 1): 0.671 nM
Cc1cccc(C)c1OCC(=O)N[C@@H](Cc1ccccc1)[C@@H](O)C[C@H](CC(C)C)NC(=O)c1cccc(N)c1 [(32)]	0.331 nM	> 100000 nM	2000 nM	0.33 nM	> 100000 nM	2000 nM	18 nM	7.4 nM	inhibitory activity against HIV-1 protease, in words (HIV-1 protease): generally potent; inhibitory activity against plasmepsin II, in words (plasmepsin II): generally potent; inhibitory activity against cathepsin D, in words (cathepsin D): generally potent
Cc1cccc(C)c1OCC(=O)N[C@@H](Cc1ccccc1)[C@@H](O)C[C@H](CC(C)C)NC(=O)[C@@H](NC(=O)OCc1ccccn1)C(C)C [(30), (2S,3S,5S)-2-[N-[2-(2,6-dimethylphenoxy)acetyl]amino]-5-[N-[N′-(pyridine-2-methoxycarbonyl)valinyl]amino]-3-hydroxy-7-methyl-1-phenyloctane]	0.017 nM	> 100000 nM	83 nM	0.017 nM	> 100000 nM	83 nM	2350 nM	3300 nM	Ki ([1]; Table 1): 0.41 nM
Cc1ccccc1C(=O)N[C@@H](Cc1ccccc1)[C@@H](O)C[C@H](CC(C)C)NC(=O)OC(C)(C)C [(38)]	–	–	–	–	–	–	–	–	Ki (HIV-1 protease; [4]): 2.1 nM; Ki ([2]; Table 1, in nM): 12 nM
Cc1cccc(C)c1OCC(=O)N[C@@H](Cc1ccccc1)[C@@H](O)C[C@H](CC(C)C)NC(=O)[C@@H](NC(=O)N1CCOCC1)C(C)C [(45), (2S,3S,5S)-2-[N-[2-(2,6-dimethylphenoxy)acetyl]amino]-5-[N-[[N′-(morpholin-4)carbonyl]valinyl]amino]-3-hydroxy-7-methyl-1-phenyloctane]	0.05 nM	> 100000 nM	170 nM	–	–	–	–	–	Rat IV CL (Rat IV pharmacokinetics): 67.5 mL/min/kg; Rat IV t1/2 (Rat IV pharmacokinetics): 20 min; Ki ([1]; Table 1): 0.437 nM; Ki (HIV-1 protease; Table 3, read-out: HIV-1 Ki): 0.05 nM; EC50 (HIV-1; Table 3): 170 nM; Rat P.O. % F (%) ([3]; AUC p.o. relative to AUC iv): 29%; Cmax [3]: 573 nM; Rat P.O. tmax [3]: 16 min
Cc1cccc(C)c1OCC(=O)N[C@@H](CC(C)C)C[C@H](O)[C@H](Cc1ccccc1)NC(=O)[C@H](C(C)C)N1CCCNC1=O [(43)]	0.176 nM	> 100000 nM	540 nM	–	–	–	–	–	Rat IV CL (Rat IV pharmacokinetics): 36.6 mL/min/kg; Rat IV t1/2 (Rat IV pharmacokinetics): 28 min; Ki (HIV-1 protease; Table 3, read-out: HIV-1 Ki): 0.176 nM; EC50 (HIV-1; Table 3): 540 nM; Cmax [3]: 2100 nM; Rat P.O. tmax [3]: 120 min; Cmax when administered orally, in words ([3]; oral): micromolar
Cc1cccc(C)c1OCC(=O)N[C@@H](Cc1ccccc1)[C@@H](O)C[C@H](CC(C)C)NC(=O)O[C@H]1CCOC1 [(26)]	0.06 nM	–	700 nM	0.06 nM	> 100000 nM	700 nM	55 nM	3.5 nM	Ki ([1]; Table 1, in nM): 2.7 nM
Cc1cccc(C)c1OCC(=O)N[C@@H](Cc1ccccc1)[C@@H](O)C[C@H](CC(C)C)NC(=O)[C@@H]1CCNC(=O)N1 [(29), (2S,3S,5S)-2-[N-[2-(2,6-dimethylphenoxy)acetyl]amino]-5-[N-[2S-(2-oxopyrimidinyl)-4-carbonyl]amino]-3-hydroxy-7-methyl-1-phenyloctane]	–	–	–	0.16 nM	–	–	3500 nM	305 nM	Ki (HIV-1 protease; [4]): 16 nM; HIV-1 EC50 (μM) (HIV-1; Table 1): in-active; HIV-1 EC50 (μM) (HIV-1; Table 2): notactive
